“Also recorded” adds a separate entry of the source.
Experiments:
[1] = tested on: EtOH-HCC; assay: EtOH-induced hepatocarcinogenesis in STZ-treated diabetic mice (MRI and morphological evaluation of tumors); type: in vivo
Text: Fujii et al. developed NASH-derived HCC model (STAM model) using STZ and HFD32.^15 This model replicates clinicopathological processes from fatty liver, NASH, fibrosis to HCC under diabetic background. The very high fat diet (HFD: 60% kcal fat) in combination with STZ also could induced morphologically detectable protrusion of liver tumor nodules at postnatal week 16. We have established a novel model in which ASH-associated liver cancer occurs in STZ-treated mice within 6 months after start of alcohol consumption (FIG. 2, 12). Mice were administered STZ on day two after birth. The STZ was administered in a dose sufficient to kill insulin-producing cells, and lead to diabetic mice. The streptozotocin-treated mice were then fed a Lieber-Decarli alcohol-liquid diet (EtOH) for four months starting at 8 weeks of age. Streptozotocin (200 μg/pup) was given through subcutaneous injection into mice at postnatal day 2. This dose was used to induce pre-diabetic condition in treated mice. This alcohol-liquid diet is from Bio-Sery (F1258) and EtOH is added into the liquid diets daily.
(§1) PROTACs are bivalent small molecules containing a ligand that recognizes a target protein linked to another ligand that recruits a specific E3 ubiquitin ligase.^46,47 PROTAC binding induces proximity-induced ubiquitination of the target protein and its subsequent degradation by proteasomes. PROTACs act catalytically to induce protein degradation in a sub-stoichiometric manner. They result in less drug exposure and reduced toxicity compared with traditional inhibitors since their effect is not limited by equilibrium occupancy. […] PROTAC technology was used to develop a Bcl-xL specific PROTAC (Bcl-xL-P), which targets Bcl-xL to the E3 ligase cereblon (CRBN) or VHL. ES ligases cereblon and VHL are poorly expressed in platelets.^51-53Bcl-xL and Bcl-2 dual PROTACs/degraders that link to the VHL ligand and target Bcl-xL and Bcl-2 to VHL for ubiquitination and proteasome degradation were also developed. These Bcl-xL and Bcl-2 dual PROTACs/degraders are not only potent antitumor agents but also effective senolytic agents. PROTAC 753B targets Bcl-xL and Bcl-2 for proteasome degradation by linking to E3 ligase VHL. […] We examined the effect of 753B on EtOH-induced hepatocarcinogenesis. 753B was administered through intraperitoneal injection at 5 mg/kg body weight every other day starting at one week after alcohol consumption. In parallel experiments, vehicle-treated control animals received a compound that could not interact with the VHL E3 ligase. […] Magnetic resonance imaging (MRI) can allow precise and accurate quantification of tumour volume. Therefore, we performed abdominal Mill examinations before or after Gd-chelate-enhanced MRI. HCC lesions were identified based on hypointense signals in T1 and hyperintense signals in T2-weighted scan at 6 months after EtOH feeding in the diabetic murine livers. In contract few lesions were found in EtOH fed animals treated with 753B (FIG. 16D). These Mill signals matched morphological evaluations of liver cancers in the sacrificed animals (FIG. 16E). […] Ratio of liver to body weight is an indicator of hepatocyte proliferation during liver regeneration and liver cancer development.

[2] = biological target: T1, Bcl-xL (Mus musculus, UniProt Q64373); assay: Western blotting of Bcl-xL in STZ/EtOH-treated diabetic livers; type: in vivo, mice; details: 5 mg/kg i.p. every other day, five-month administration, 6-month feeding of 5% ethanol, vs vehicle controls
T1 construct: from tissue; host or cells: liver of STZ/EtOH-treated diabetic mice
T1 sequence (Q64373 whole entry): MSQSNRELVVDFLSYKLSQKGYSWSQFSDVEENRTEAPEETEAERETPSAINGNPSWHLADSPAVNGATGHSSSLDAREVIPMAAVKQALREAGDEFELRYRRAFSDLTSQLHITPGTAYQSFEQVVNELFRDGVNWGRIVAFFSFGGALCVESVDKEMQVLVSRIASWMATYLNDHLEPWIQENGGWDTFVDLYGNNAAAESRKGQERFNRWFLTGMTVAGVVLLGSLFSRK
Text: PROTACs are bivalent small molecules containing a ligand that recognizes a target protein linked to another ligand that recruits a specific E3 ubiquitin ligase.^46,47 PROTAC binding induces proximity-induced ubiquitination of the target protein and its subsequent degradation by proteasomes. PROTACs act catalytically to induce protein degradation in a sub-stoichiometric manner. They result in less drug exposure and reduced toxicity compared with traditional inhibitors since their effect is not limited by equilibrium occupancy. […] PROTAC technology was used to develop a Bcl-xL specific PROTAC (Bcl-xL-P), which targets Bcl-xL to the E3 ligase cereblon (CRBN) or VHL. ES ligases cereblon and VHL are poorly expressed in platelets.^51-53Bcl-xL and Bcl-2 dual PROTACs/degraders that link to the VHL ligand and target Bcl-xL and Bcl-2 to VHL for ubiquitination and proteasome degradation were also developed. These Bcl-xL and Bcl-2 dual PROTACs/degraders are not only potent antitumor agents but also effective senolytic agents. PROTAC 753B targets Bcl-xL and Bcl-2 for proteasome degradation by linking to E3 ligase VHL. […] We examined the effect of 753B on EtOH-induced hepatocarcinogenesis. […] Magnetic resonance imaging (MRI) can allow precise and accurate quantification of tumour volume. […]

[3] = tested on: liver fibrosis; assay: Myofibroblast activation and liver fibrosis during EtOH-associated hepatocarcinogenesis in diabetic mice; type: in vivo
Text: Fibrosis is characterized by myofibroblast cell activation and excessive collagen deposition. Extensive fibrotic reaction has been reported during NASH to HCC transition through the chemical and dietary intervention by STZ/HFD cotreatment.^4 We compared effects of 753B and control compound on liver fibrosis in the diabetic animals after 5-month drug administration. […] Decreased liver fibrosis was further verified after quantitative measurement of collagen content based on hydroxyproline assay in livers exposed to 753B administration (1031.8±116.4 versus 721.2±215.0) (FIG. 17D). Ishak score of the liver tissue in the livers were also analyzed. Grade 0 has no fibrosis. Grade 1 has fibrous expansion of some portal areas, with or without short fibrous septa. Grade 2 contains fibrous expansion of most portal areas, with or without short fibrous septa. Grade 3 has fibrous expansion of most portal areas with an occasional portal to portal bridging. Grade 4 contains fibrous expansion of portal areas with marked bridging including portal-portal and portal-central bridging. Grade 5 has marked portal-portal and portal-central bridging with occasional nodules (incomplete cirrhosis). Grade 6 has cirrhosis, probable or define.

[4] = tested on: senescent cells; assay: X-gal staining for SA-β-galactosidase activity in STZ/EtOH-treated livers; type: in vivo, mice; details: 753B/EtOH-treated diabetic livers vs vehicle-treated controls
[5] = tested on: senescent cells; assay: Senolytic activity in livers of aging and STZ/HFD-treated mice; type: in vivo; details: data not shown
[6] = tested on: SASP genes, liver cancer markers (Gpc3 and Afp), oncogenes (Myc, Tgfa); assay: Western blotting and Q-RT-PCR of senescence, liver cancer marker and oncogene expression in STZ/EtOH-treated livers; type: in vivo, mice
Text: as §1

[7] = STZ/EtOH-treated livers, 5 mice per group
[8] = 5-month drug administration, vs controls
[9] = Q-RT-PCR, 753B/EtOH-treated diabetic livers vs vehicle-treated controls

Cc1ncsc1-c1ccc([C@H](C)NC(=O)[C@@H]2C[C@@H](O)CN2C(=O)[C@@H](NC(=O)CCCCCCC(=O)N2CCN(C[C@]3(C)CCC(c4ccc(Cl)cc4)=C(CN4CCN(c5ccc(C(=O)NS(=O)(=O)c6ccc(N[C@H](CCN7CCOCC7)CSc7ccccc7)c(S(=O)(=O)C(F)(F)F)c6)cc5)CC4)C3)CC2)C(C)(C)C)cc1 [753B]
formation of tumor nodules, number [1, 7]: efficiently inhibited
formation of tumor nodules, volume [1, 7]: efficiently inhibited
ratio of liver to body weight ([1]; STZ/EtOH-treated mice, 5 mice per group): significantly decreased
HCC lesions in MRI ([1]; T1/T2-weighted scan at 6 months after EtOH feeding): few lesions
tumor size (diameter) of the majority of tumors ([1]; morphological evaluation, STZ/EtOH-treated livers): small in size (<2 mM and 2-5 mm)
Bcl-xL accumulation (Western blotting) [2]: effectively inhibited Bcl-xL accumulation
collagen deposition (Sirius red staining and Western analysis) [3, 8]: significantly lower; also recorded: little collagen deposition
myofibroblast activation (aSMA immunofluorescent staining and Western blotting) [3, 8]: significantly reduced; also recorded: few myofibroblast activation
mRNA of fibrosis-related markers (aSMA, Col1a1, Col1a2, Col4a1, Col4a2, Tgf-b2, Ctgf, Pdgf-b, Spp1) ([3]; Q-RT-PCR, diabetic animals after 5-month drug administration, vs control compound): significant downregulation; also recorded: lower levels
aSMA and pro-collagen type I proteins (Western blotting) ([3]; STZ/EtOH/753B-treated livers): low levels
Ishak score of liver fibrosis ([3]; vs controls, 5-6 livers per group): significantly decreased; also recorded: lower levels
senescence by SA-β-gal activity (X-gal staining) [4]: little senescence; also recorded: inhibited senescent cell accumulation
senolytic activity in livers [5]: high senolytic activity
Gpc3 protein expression (Western blotting) ([6]; 5 mg/kg i.p. every other day, five-month administration, diabetic livers, 6-month feeding of 5% ethanol): reduced Gpc3 expression; also recorded: blocked induction
mRNA levels of SASP genes (Cdkn2a/p16, Cdkn2b/p15, Ccl2, Ccl11, Serpine1/PAI1, Ccl12) [6, 9]: significant reduction; also recorded: inhibited mRNA levels
mRNA levels of liver cancer markers (Gpc3 and Afp) [6, 9]: significant reduction; also recorded: inhibited mRNA levels
mRNA levels of oncogenes (Myc and Tgfa) [6, 9]: significant reduction

Source: patent publication US12219938B2, “Mouse model of alcohol-induced liver cancer” (UNIVERSITY OF FLORIDA RESEARCH FOUNDATION, INCORPORATED, priority 2020, dated 2025)
